In ChEMBL document CHEMBL4325884, “Investigation of the molecular characteristics of bisindole inhibitors as HIV-1 glycoprotein-41 fusion inhibitors” (Eur J Med Chem, 2019):

Experiments:
[1] = Cytotoxicity against human PBMC by MTS or resazurin dye based assay; format: cell-based
[2] = tested on: Human immunodeficiency virus 1; experiment: Antiviral activity against HIV-1 3B infected in human MAGI-CXCR4 cells assessed as reduction in viral infection after 48 hrs by fluorescence based beta-galactosidase reporter gene assay; format: functional, organism-based; settings: Human immunodeficiency virus 1, 3B
[3] = tested on: Human immunodeficiency virus 1; experiment: Antiviral activity against HIV-1 Bal infected in human MAGI-CCR5 cells assessed as reduction in viral infection after 48 hrs by fluorescence based beta-galactosidase reporter gene assay; format: functional, organism-based; settings: Human immunodeficiency virus 1, Bal, MAGI-CCR5, 48 h
[4] = Cytotoxicity against human MAGI cells by MTS or resazurin dye based assay; format: cell-based
[5] = biological target: Envelope glycoprotein gp160 (Human immunodeficiency virus 1, UniProt Q6QLK5); experiment: Binding affinity to HIV1 N-terminal 2,2-bipyridine-5-carboxylate-capped Envelope glycoprotein gp41 Fe2(env2.0)3 by C18FL probe based fluorescence quenching assay
Chain of Envelope glycoprotein gp160 (Q6QLK5 whole entry): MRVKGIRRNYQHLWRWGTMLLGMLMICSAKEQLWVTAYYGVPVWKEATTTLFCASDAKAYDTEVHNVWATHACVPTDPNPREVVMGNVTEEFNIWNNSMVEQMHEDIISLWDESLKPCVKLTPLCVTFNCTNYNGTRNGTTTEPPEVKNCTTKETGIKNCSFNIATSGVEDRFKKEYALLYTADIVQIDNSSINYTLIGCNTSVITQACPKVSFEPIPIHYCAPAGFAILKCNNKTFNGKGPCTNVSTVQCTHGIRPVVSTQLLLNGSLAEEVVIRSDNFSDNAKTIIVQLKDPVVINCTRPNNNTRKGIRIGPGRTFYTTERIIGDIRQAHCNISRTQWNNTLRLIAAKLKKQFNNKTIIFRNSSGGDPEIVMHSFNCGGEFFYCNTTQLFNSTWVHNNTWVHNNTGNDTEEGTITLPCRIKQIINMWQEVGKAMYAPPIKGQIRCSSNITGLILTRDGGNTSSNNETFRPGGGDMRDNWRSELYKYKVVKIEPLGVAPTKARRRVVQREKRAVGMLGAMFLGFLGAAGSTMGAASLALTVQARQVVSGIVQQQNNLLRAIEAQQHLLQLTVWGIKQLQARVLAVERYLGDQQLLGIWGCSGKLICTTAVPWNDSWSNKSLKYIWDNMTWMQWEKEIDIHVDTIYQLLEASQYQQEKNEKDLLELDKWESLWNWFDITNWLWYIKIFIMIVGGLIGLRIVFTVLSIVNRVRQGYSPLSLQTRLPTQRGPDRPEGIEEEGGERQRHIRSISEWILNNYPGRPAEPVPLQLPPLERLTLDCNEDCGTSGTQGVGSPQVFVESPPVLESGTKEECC

In the case of `Cn1ncc2ccc(-c3ccc4cnn(Cc5ccc(F)c(C(=O)O)c5)c4c3)cc21`, the CC50 [1] is reported as 200 µM, the IC50 [2] is reported as over 20 µM and the IC50 [3] is reported as over 20 µM. For the same molecule, the CC50 [4] was 200 µM and the Ki [5] was 19 µM.
`CN(C(=O)OC(C)(C)C)c1cccc(-c2ccc3ccn(Cc4cccc(C(=O)O)c4)c3c2)c1` showed a CC50 [1] of over 20 µM, an IC50 [2] of 11.3 µM and an IC50 [3] of 15.6 µM. The Ki [5] was 1.6 µM.
`CC(C)(C)OC(=O)c1cccc(Cn2ccc3ccc(-c4ccc5ccn(Cc6cccc(C(=O)O)c6)c5c4)cc32)c1` showed a CC50 [1] of over 10 µM, an IC50 [2] of 0.2 µM and an IC50 [3] of 0.2 µM. For the same molecule, the Ki [5] was 0.3 µM.
With `COC(=O)c1cccc(Cn2ccc3ccc(-c4ccc5cnn(Cc6cccc(C(=O)O)c6)c5c4)cc32)c1` the CC50 [1] was over 20 µM, the IC50 [2] was 2.5 µM and the IC50 [3] was 3.1 µM. For the same molecule, the Ki [5] was 3.2 µM.
Work on `COC(=O)c1cc(F)cc(Cn2ccc3ccc(-c4ccc5ccn(Cc6cccc(C(=O)O)c6)c5c4)cc32)c1` yielded a CC50 [1] of over 20 µM, an IC50 [2] of 0.5 µM and an IC50 [3] of 0.4 µM. It also gave a Ki [5] of 1 µM.
`Cn1ccc2ccc(-c3ccc4cnn(Cc5cc(F)cc(C(=O)O)c5)c4c3)cc21` gave a CC50 [1] of over 20 µM, an IC50 [2] of over 20 µM and an IC50 [3] of over 20 µM. The Ki [5] was 2.1 µM.
`CC(C)(C)OC(=O)N1CCC(Cn2ccc3ccc(-c4ccc5ccn(Cc6cccc(C(=O)O)c6)c5c4)cc32)CC1` gave a CC50 [1] of over 20 µM, an IC50 [2] of 0.6 µM and an IC50 [3] of 0.6 µM. It also gave a Ki [5] of 1.2 µM.
Work on `COc1cccc(Cn2ccc3cc(F)c(-c4ccc5ccn(Cc6cccc(C(=O)O)c6)c5c4)cc32)c1` yielded a CC50 [1] of over 20 µM, an IC50 [2] of 7 µM and an IC50 [3] of 9.4 µM. The Ki [5] was 5 µM.
In the case of `CC(C)(C)OC(=O)N1CCc2ccc(-c3ccc4ccn(Cc5cccc(C(=O)O)c5)c4c3)cc21`, the CC50 [1] is reported as over 25 µM, the IC50 [2] is reported as 2.8 µM and the IC50 [3] is reported as 2.3 µM. It also gave a Ki [5] of 0.9 µM.
Molecule `Cn1ncc2ccc(-c3ccc4ccn(Cc5cc(F)cc(C(=O)O)c5)c4c3)cc21` has a CC50 [1] of over 20 µM, an IC50 [2] of 11.3 µM and an IC50 [3] of 10.1 µM. The Ki [5] was 2.5 µM.
Molecule `Nc1ccc(Cn2ccc3ccc(-c4ccc5ccn(Cc6cccc(C(=O)O)c6)c5c4)cc32)cc1` has a CC50 [1] of over 20 µM, an IC50 [2] of 1.3 µM and an IC50 [3] of 1.1 µM. The Ki [5] was 3.1 µM.
Work on `CC(=O)Nc1cccc(Cn2ccc3ccc(-c4ccc5ccn(Cc6cccc(C(=O)O)c6)c5c4)cc32)c1` yielded a CC50 [1] of over 20 µM, an IC50 [2] of 4.5 µM and an IC50 [3] of 4.7 µM. The Ki [5] was 0.9 µM.
`COc1cccc(CN(C)c2cccc(-c3ccc4ccn(Cc5cccc(C(=O)O)c5)c4c3)c2)c1` showed a CC50 [1] of over 20 µM, an IC50 [2] of 1.2 µM and an IC50 [3] of 1.6 µM. The Ki [5] was 0.8 µM.
For `O=C(O)c1cccc(Cn2ccc3ccc(-c4ccc5ccn(Cc6cccc([N+](=O)[O-])c6)c5c4)cc32)c1`, the CC50 [1] was over 20 µM, the IC50 [2] was 3.4 µM and the IC50 [3] was 2.8 µM. It also gave a Ki [5] of 2.7 µM.
For `COc1cc(Cn2ccc3ccc(-c4ccc5ccn(Cc6cccc(C(=O)O)c6)c5c4)cc32)cc(C(=O)O)c1`, the CC50 [1] was over 20 µM, the IC50 [2] was over 20 µM and the IC50 [3] was over 20 µM. It also gave a Ki [5] of 0.8 µM.
With `COc1cccc(Cn2ccc3ccc(-c4ccc5c(C)cn(Cc6cccc(C(=O)O)c6)c5c4)cc32)c1` the CC50 [1] was 70 µM, the IC50 [2] was 12.9 µM and the IC50 [3] was 10.5 µM. For the same molecule, the CC50 [4] was 70 µM and the Ki [5] was 1.2 µM.
For `Cn1ccc2cc(F)c(-c3ccc4ccn(Cc5cc(F)cc(C(=O)O)c5)c4c3)cc21`, the CC50 [1] was over 20 µM, the IC50 [2] was 7.8 µM and the IC50 [3] was 9.7 µM. For the same molecule, the Ki [5] was 2 µM.
Work on `COc1cccc(CN2CCc3ccc(-c4ccc5ccn(Cc6cccc(C(=O)O)c6)c5c4)cc32)c1` yielded a CC50 [1] of over 25 µM, an IC50 [2] of 2.4 µM and an IC50 [3] of 1.9 µM. The Ki [5] was 3.6 µM.
In the case of `CC(C)(C)OC(=O)n1ccc2ccc(-c3ccc4ccn(Cc5cccc(C(=O)O)c5)c4c3)cc21`, the CC50 [1] is reported as over 20 µM, the IC50 [2] is reported as 1 µM and the IC50 [3] is reported as 0.9 µM. It also gave a Ki [5] of 1.9 µM.
`Cc1cn(C(=O)OC(C)(C)C)c2cc(-c3ccc4ccn(Cc5cccc(C(=O)O)c5)c4c3)ccc12` gave a CC50 [1] of over 20 µM, an IC50 [2] of 1.7 µM and an IC50 [3] of 1.2 µM. The Ki [5] was 4.7 µM.
In the case of `COC(=O)c1cccc(Cn2ncc3ccc(-c4ccc5ccn(Cc6cccc(C(=O)O)c6)c5c4)cc32)c1`, the CC50 [1] is reported as over 50 µM, the IC50 [2] is reported as 1.4 µM and the IC50 [3] is reported as 1.4 µM. It also gave a Ki [5] of 1 µM.
Work on `Cn1cc2ccc(-c3ccc4ccn(Cc5cc(F)cc(C(=O)O)c5)c4c3)cc2n1` yielded a CC50 [1] of over 20 µM, an IC50 [2] of over 20 µM and an IC50 [3] of 14 µM. For the same molecule, the Ki [5] was 6.4 µM.
In the case of `CC(C)(C)OC(=O)Nc1cccc(Cn2ccc3ccc(-c4ccc5ccn(Cc6cccc(C(=O)O)c6)c5c4)cc32)c1`, the CC50 [1] is reported as over 20 µM, the IC50 [2] is reported as 0.5 µM and the IC50 [3] is reported as 0.4 µM. The Ki [5] was 1.5 µM.
`Cn1ccc2ccc(-c3ccc4c(c3)N(Cc3cccc(C(=O)O)c3)CC4)cc21` showed a CC50 [1] of over 50 µM, an IC50 [2] of over 25 µM and an IC50 [3] of over 25 µM. For the same molecule, the Ki [5] was 10 µM.
`Cc1ccc(S(=O)(=O)n2ccc3ccc(-c4ccc5ccn(Cc6cccc(C(=O)O)c6)c5c4)cc32)cc1` showed a CC50 [1] of over 50 µM, an IC50 [2] of 0.9 µM and an IC50 [3] of 0.8 µM. It also gave a Ki [5] of 1.2 µM.
`COC(=O)c1cccc(Cn2ccc3cc(F)c(-c4ccc5ccn(Cc6cccc(C(=O)O)c6)c5c4)cc32)c1` gave a CC50 [1] of over 20 µM, an IC50 [2] of 0.4 µM and an IC50 [3] of 0.5 µM. It also gave a Ki [5] of 0.7 µM.
Molecule `COC(=O)c1ccc(Cn2ccc3ccc(-c4ccc5ccn(Cc6cccc(C(=O)O)c6)c5c4)cc32)c(OC)c1` has a CC50 [1] of 25 µM, an IC50 [2] of 3.1 µM and an IC50 [3] of 4.2 µM. For the same molecule, the CC50 [4] was 25 µM and the Ki [5] was 0.4 µM.
Work on `COc1cccc(CN(C(=O)OC(C)(C)C)c2cccc(-c3ccc4ccn(Cc5cccc(C(=O)O)c5)c4c3)c2)c1` yielded a CC50 [1] of over 10 µM, an IC50 [2] of 4.2 µM and an IC50 [3] of 5.5 µM. The Ki [5] was 0.45 µM.
In the case of `COc1cccc(Cn2ccc3ccc(-c4ccc5cn(Cc6cccc(C(=O)O)c6)nc5c4)cc32)c1`, the CC50 [1] is reported as over 20 µM, the IC50 [2] is reported as 5.5 µM and the IC50 [3] is reported as 5.8 µM. For the same molecule, the Ki [5] was 1 µM.
`Cn1ccc2ccc(-c3ccc4ccn(Cc5cc(F)cc(C(=O)O)c5)c4c3)cc21` showed a CC50 [1] of over 20 µM, an IC50 [2] of 9.1 µM and an IC50 [3] of 8.2 µM. It also gave a Ki [5] of 3 µM.
`COc1cccc(CNc2cccc(-c3ccc4ccn(Cc5cccc(C(=O)O)c5)c4c3)c2)c1` showed a CC50 [1] of over 10 µM, an IC50 [2] of over 20 µM and an IC50 [3] of over 20 µM. For the same molecule, the Ki [5] was 1.5 µM.
`COC(=O)c1cc(Cn2ccc3ccc(-c4ccc5ccn(Cc6cccc(C(=O)O)c6)c5c4)cc32)cc(C(=O)OC)c1` showed a CC50 [1] of over 20 µM, an IC50 [2] of 0.6 µM and an IC50 [3] of 0.6 µM. For the same molecule, the Ki [5] was 1 µM.
Work on `O=C(O)c1cccc(Cn2ccc3ccc(-c4ccc5ccn(Cc6cccc(OC(F)(F)F)c6)c5c4)cc32)c1` yielded a CC50 [1] of over 20 µM, an IC50 [2] of 1.5 µM and an IC50 [3] of 1.4 µM. The Ki [5] was 2.3 µM.
